The values below come from patent US12258327B2, “5-membered heteroaryl-containing aminopyridine compounds as EGFR inhibitors” (YUHAN CORPORATION, priority 2021, dated 2025).

pIC50: −log10 of the molar value. Where two headings read alike, the source gives them in different places.

In one assay the target is EGFR L858R/T790M/C797S (Homo sapiens, UniProt P00533, C797S/L858R/T790M). Put plainly: Biochemical EGFR kinase assay (Lance Ultra TR-FRET), triple mutant L858R/T790M/C797S. The method in brief:
(§1)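 In this biochemical assay, phosphorylation after a one-hour room-temperature reaction was detected with europium-labelled anti-phosphopeptide antibody at 2 nM final concentration.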
On the technique in general: In TR-FRET formats the signal depends on donor and acceptor labels being close together.

A further assay deals with EGFR wildtype (WT) (Homo sapiens, UniProt P00533). Put plainly: Biochemical EGFR kinase assay (Lance Ultra TR-FRET), wildtype. The method in brief: as §1
Another assay concerns the target EGFR del19/C797S (Homo sapiens, UniProt P00533, C797S/DEL746-750). Put plainly: Biochemical EGFR kinase assay (Lance Ultra TR-FRET), double mutant del19/C797S. Put shortly:
as §1

A further assay concerns the target EGFR del19/T790M/C797S (Homo sapiens, UniProt P00533, C797S/DEL746-750/T790M). Put plainly: Biochemical EGFR kinase assay (Lance Ultra TR-FRET), triple mutant del19/T790M/C797S. Put shortly:
as §1

The target of the next assay is EGFR L858R/C797S (Homo sapiens, UniProt P00533, C797S/L858R). Put plainly: Biochemical EGFR kinase assay (Lance Ultra TR-FRET), double mutant L858R/C797S. The method in brief: as §1
The mark [1] stands for this setting: Km ATP, read-out: IC50 L858R/T790M/C797S (nM) Km ATP.
Where [2] appears, read: Km ATP, read-out: IC50 WT (nM) Km ATP.
[3] abbreviates: Km ATP, read-out: IC50 del19/C797S (nM) Km ATP.
Setting [4] is: Km ATP, read-out: IC50 del19/T790M/C797S (nM) Km ATP.
The mark [5] stands for this setting: Km ATP, read-out: IC50 L858R/C797S (nM) Km ATP.
The mark [6] stands for this setting: Km ATP, read-out: IC50 L858R/T790M/C797S, Km ATP.
Where [7] appears, read: Km ATP, read-out: IC50 WT, Km ATP.
The mark [8] stands for this setting: Km ATP, read-out: IC50 del19/C797S, Km ATP.
[9] abbreviates: Km ATP, read-out: IC50 del19/T790M/C797S, Km ATP.
Where [10] appears, read: Km ATP, read-out: IC50 L858R/C797S, Km ATP.

EGFR L858R/T790M/C797S, sequence (P00533 25-1210 T790M/C797S/L858R): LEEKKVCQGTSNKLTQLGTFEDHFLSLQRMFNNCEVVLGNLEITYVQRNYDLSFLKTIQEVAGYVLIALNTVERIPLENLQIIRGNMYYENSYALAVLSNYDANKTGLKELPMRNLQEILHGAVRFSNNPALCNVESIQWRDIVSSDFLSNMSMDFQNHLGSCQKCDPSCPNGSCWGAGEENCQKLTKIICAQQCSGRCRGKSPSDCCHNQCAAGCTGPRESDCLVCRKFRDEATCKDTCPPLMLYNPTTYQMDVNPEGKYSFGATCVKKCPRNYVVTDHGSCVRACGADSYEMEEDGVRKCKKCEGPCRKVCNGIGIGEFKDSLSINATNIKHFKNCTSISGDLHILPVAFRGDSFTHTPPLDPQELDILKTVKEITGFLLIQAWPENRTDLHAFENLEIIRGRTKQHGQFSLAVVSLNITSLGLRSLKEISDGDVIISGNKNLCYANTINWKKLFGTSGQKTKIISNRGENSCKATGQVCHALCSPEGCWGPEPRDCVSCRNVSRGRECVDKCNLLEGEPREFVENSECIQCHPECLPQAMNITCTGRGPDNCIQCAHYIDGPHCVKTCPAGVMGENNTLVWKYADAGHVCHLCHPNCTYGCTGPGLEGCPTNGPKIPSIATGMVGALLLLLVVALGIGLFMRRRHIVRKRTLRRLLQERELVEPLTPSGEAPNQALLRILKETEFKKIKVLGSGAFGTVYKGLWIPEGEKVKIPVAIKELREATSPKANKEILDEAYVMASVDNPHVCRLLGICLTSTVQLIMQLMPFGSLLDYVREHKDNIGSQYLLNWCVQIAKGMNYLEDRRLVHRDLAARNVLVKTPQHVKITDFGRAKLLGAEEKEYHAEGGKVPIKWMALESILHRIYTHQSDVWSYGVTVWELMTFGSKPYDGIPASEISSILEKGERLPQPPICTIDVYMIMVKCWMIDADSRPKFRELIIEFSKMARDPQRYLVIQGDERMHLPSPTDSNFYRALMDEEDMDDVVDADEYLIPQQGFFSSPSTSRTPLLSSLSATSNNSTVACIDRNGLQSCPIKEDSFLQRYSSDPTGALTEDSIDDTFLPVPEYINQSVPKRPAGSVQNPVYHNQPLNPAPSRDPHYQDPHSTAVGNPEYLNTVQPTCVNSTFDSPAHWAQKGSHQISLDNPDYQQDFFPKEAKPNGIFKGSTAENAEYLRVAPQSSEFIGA
EGFR L858R/C797S, sequence (P00533 25-1210 C797S/L858R): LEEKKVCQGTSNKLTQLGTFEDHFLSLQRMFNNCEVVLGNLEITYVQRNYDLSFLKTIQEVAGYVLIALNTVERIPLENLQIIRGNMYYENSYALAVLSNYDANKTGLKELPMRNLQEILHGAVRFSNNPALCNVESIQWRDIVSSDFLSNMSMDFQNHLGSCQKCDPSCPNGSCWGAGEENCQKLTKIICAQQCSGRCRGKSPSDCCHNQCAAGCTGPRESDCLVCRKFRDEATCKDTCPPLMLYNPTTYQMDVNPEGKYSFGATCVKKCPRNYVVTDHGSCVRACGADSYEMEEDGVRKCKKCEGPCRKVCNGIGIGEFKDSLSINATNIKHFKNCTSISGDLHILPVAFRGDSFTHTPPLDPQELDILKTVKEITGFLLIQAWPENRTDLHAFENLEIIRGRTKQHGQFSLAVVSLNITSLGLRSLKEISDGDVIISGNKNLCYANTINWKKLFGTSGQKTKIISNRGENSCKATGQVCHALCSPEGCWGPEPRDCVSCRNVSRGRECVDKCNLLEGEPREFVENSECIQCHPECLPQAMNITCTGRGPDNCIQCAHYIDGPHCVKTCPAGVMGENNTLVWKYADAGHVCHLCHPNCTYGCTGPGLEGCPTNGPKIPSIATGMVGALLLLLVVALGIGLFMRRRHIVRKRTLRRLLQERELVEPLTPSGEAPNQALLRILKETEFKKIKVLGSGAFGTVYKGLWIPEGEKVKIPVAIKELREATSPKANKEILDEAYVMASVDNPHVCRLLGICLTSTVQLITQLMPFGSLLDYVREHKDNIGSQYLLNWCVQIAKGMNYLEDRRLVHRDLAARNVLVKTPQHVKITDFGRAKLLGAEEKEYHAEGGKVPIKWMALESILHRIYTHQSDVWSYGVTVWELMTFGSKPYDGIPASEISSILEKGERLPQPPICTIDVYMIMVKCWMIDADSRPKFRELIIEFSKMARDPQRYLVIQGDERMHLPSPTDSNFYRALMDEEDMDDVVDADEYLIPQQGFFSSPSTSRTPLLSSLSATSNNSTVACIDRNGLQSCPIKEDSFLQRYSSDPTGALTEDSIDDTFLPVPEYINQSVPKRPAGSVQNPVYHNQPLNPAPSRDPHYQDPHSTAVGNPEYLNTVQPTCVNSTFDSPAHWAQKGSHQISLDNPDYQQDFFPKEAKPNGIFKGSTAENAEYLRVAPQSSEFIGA
EGFR del19/T790M/C797S, sequence (P00533 with tags, fused parts or gaps DEL746-750/T790M/C797S): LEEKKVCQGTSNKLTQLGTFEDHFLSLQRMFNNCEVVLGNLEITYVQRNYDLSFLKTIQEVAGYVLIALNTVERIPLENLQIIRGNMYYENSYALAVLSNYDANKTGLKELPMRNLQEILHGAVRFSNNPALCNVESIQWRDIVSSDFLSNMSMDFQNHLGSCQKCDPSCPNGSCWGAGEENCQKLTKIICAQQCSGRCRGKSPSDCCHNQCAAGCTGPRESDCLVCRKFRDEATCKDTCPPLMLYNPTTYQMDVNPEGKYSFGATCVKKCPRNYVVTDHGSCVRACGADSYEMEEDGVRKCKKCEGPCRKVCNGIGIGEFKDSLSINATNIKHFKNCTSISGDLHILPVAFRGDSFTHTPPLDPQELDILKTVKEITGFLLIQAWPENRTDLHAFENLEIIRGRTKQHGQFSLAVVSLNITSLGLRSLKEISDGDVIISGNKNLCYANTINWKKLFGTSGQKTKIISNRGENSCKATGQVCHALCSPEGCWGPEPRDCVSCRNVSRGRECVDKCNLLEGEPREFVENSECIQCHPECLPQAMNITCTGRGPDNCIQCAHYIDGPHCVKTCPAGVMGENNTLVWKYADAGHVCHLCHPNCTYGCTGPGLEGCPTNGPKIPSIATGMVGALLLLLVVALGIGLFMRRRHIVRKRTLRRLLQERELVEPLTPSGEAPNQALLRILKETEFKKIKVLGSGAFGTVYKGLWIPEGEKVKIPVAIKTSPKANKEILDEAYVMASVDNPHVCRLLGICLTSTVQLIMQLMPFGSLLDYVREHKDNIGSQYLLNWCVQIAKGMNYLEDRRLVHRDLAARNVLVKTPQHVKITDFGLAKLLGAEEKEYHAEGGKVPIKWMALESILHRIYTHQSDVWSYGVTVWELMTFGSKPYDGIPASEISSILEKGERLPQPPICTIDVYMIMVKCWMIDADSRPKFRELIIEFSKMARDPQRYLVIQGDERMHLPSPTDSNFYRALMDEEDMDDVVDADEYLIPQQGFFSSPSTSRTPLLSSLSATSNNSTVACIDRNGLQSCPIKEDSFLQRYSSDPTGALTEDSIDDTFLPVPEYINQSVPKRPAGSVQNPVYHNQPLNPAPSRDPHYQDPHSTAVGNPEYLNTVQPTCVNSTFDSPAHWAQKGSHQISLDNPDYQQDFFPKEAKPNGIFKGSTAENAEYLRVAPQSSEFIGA
EGFR wildtype (WT), sequence (P00533 25-1210): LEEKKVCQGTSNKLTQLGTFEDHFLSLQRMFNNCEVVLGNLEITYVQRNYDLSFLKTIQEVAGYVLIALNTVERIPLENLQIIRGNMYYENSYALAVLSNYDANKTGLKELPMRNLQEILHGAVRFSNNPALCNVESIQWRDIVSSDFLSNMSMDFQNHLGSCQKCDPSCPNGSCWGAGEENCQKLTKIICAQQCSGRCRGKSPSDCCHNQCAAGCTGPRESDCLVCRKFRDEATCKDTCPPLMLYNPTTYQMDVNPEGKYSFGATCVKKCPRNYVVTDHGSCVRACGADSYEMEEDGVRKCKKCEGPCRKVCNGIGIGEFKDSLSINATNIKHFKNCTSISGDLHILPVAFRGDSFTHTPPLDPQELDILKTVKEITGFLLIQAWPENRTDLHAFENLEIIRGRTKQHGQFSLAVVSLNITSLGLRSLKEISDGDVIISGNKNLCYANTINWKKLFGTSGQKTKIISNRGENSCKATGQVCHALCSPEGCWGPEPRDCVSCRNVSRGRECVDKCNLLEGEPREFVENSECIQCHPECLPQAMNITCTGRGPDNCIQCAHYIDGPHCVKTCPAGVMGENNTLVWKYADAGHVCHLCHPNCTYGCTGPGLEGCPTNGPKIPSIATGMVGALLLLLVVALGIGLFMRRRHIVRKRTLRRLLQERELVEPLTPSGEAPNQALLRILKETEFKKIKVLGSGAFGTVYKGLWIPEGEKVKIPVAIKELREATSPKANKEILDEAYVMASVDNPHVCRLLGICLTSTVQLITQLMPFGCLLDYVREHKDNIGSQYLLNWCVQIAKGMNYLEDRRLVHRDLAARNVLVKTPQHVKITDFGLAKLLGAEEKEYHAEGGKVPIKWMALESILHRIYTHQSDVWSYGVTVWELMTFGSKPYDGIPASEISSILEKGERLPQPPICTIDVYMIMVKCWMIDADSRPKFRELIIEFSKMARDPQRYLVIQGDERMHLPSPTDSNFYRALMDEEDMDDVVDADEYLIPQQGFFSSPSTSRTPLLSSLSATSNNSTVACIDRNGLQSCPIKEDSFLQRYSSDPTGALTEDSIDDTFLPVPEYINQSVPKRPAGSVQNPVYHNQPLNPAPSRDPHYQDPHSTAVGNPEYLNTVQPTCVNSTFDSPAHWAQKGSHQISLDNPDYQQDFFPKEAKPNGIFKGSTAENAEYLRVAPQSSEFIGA

Take `O=S(=O)(C1CC1)n1cc(-c2nccc(Nc3cc(NC4CCC(F)(F)C4)c(-c4ccn(C(F)F)n4)cn3)n2)cn1` (stereo not drawn) [Example 179, N^2-(2-(1-(Cyclopropylsulfonyl)-1H-pyrazol-4-yl)pyrimidin-4-yl)-N^4-(3,3-difluorocyclopentyl)-5-(1-(difluoromethyl)-1H-pyrazol-3-yl)pyridine-2,4-diamine]: the IC50 on EGFR L858R/T790M/C797S (setting [1]) was found to be 2.1 nM; on EGFR wildtype (WT) (setting [2]), 264 nM; at EGFR del19/C797S (setting [3]), 168 nM; on EGFR del19/T790M/C797S (setting [4]), 3.1 nM; on EGFR L858R/C797S (setting [5]) it was 7.4 nM.
In the case of `O=S(=O)(C1CC1)n1cc(-c2ncc(F)c(Nc3cc(N[C@H]4CC[C@@H](CCO)CC4)c(-c4ccn(CC(F)F)n4)cn3)n2)cn1` [Example 336, 2-((1s,4s)-4-((2-((2-(1-(Cyclopropylsulfonyl)-1H-pyrazol-4-yl)-5-fluoropyrimidin-4-yl)amino)-5-(1-(2,2-difluoroethyl)-1H-pyrazol-3-yl)pyridin-4-yl)amino)cyclohexyl)ethan-1-ol], the pIC50 on EGFR L858R/T790M/C797S (setting [6]) was 8.96; at EGFR wildtype (WT) (setting [7]) it was 5.59; on EGFR del19/C797S (setting [8]), 7.43; at EGFR del19/T790M/C797S (setting [9]), 9.00; at EGFR L858R/C797S (setting [10]) it was 7.69.
For `CS(=O)(=O)n1cc(-c2nccc(Nc3cc(N[C@H]4CC[C@@](C)(O)CC4)c(-c4ccn(C(F)F)n4)cn3)n2)cn1` [Example 112, (1s,4s)-4-((5-(1-(Difluoromethyl)-1H-pyrazol-3-yl)-2-((2-(1-(methylsulfonyl)-1H-pyrazol-4-yl)pyrimidin-4-yl)amino)pyridin-4-yl)amino)-1-methylcyclohexan-1-ol], the IC50 at EGFR L858R/T790M/C797S (setting [1]) is 0.5 nM; at EGFR L858R/T790M/C797S (read-out: IC50 L858R/T790M/C797S (nM) 100 μM ATP, 100 μM ATP), 4.9 nM; at EGFR wildtype (WT) (setting [2]), 220 nM; at EGFR wildtype (WT) (read-out: IC50 WT (nM) 100 μM ATP, 100 μM ATP), greater than 10000 nM; on EGFR del19/C797S (setting [3]), 34.5 nM; at EGFR del19/C797S (read-out: IC50 del19/C797S (nM) 100 μM ATP, 100 μM ATP), 75.4 nM. Also, the IC50 on EGFR del19/T790M/C797S (setting [4]) worked out at 1.2 nM; on EGFR del19/T790M/C797S (read-out: IC50 del19/T790M/C797S (nM) 100 μM ATP, 100 μM ATP) it was 2.1 nM; on EGFR L858R/C797S (setting [5]), 34.9 nM; at EGFR L858R/C797S (read-out: IC50 L858R/C797S (nM) 100 μM ATP, 100 μM ATP) it was 60.7 nM.
Turning to `C[C@]1(CO)C[C@@H](Nc2cc(Nc3ccnc(-c4cnn(S(=O)(=O)C5CC5)c4)n3)ncc2-c2ccn(C(F)F)n2)C1` [Example 378, ((1s,3s)-3-((2-((2-(1-(Cyclopropylsulfonyl)-1H-pyrazol-4-yl)pyrimidin-4-yl)amino)-5-(1-(difluoromethyl)-1H-pyrazol-3-yl)pyridin-4-yl)amino)-1-methylcyclobutyl)methanol], the pIC50 was 8.51 on EGFR L858R/T790M/C797S (IC50 L858R/T790M/C797S, 100 μM ATP); 9.52 on EGFR L858R/T790M/C797S (setting [6]); less than 5.00 against EGFR wildtype (WT) (IC50 WT, 100 μM ATP); 6.59 on EGFR wildtype (WT) (setting [7]); 7.62 on EGFR del19/C797S (IC50 del19/C797S, 100 μM ATP); 7.78 on EGFR del19/C797S (setting [8]). For the same compound, the pIC50 against EGFR del19/T790M/C797S (IC50 del19/T790M/C797S, 100 μM ATP) was 8.77; at EGFR del19/T790M/C797S (setting [9]), 8.92; on EGFR L858R/C797S (IC50 L858R/C797S, 100 μM ATP), 6.29; at EGFR L858R/C797S (setting [10]) it was 7.84.
With `CN(C)C(=O)[C@H]1CC[C@@H](Nc2cc(Nc3ccnc(-c4cnn(S(=O)(=O)C5CC5)c4)n3)ncc2-c2ccn(C(F)F)n2)CC1` [Example 201, (1s,4s)-4-((2-((2-(1-(Cyclopropylsulfonyl)-1H-pyrazol-4-yl)pyrimidin-4-yl)amino)-5-(1-(difluoromethyl)-1H-pyrazol-3-yl)pyridin-4-yl)amino)-N,N-dimethylcyclohexane-1-carboxamide], the IC50 at EGFR L858R/T790M/C797S (IC50 L858R/T790M/C797S (nM) 100 μM ATP, 100 μM ATP) is 0.5 nM; on EGFR L858R/T790M/C797S (setting [1]) it was 0.3 nM; at EGFR wildtype (WT) (IC50 WT (nM) 100 μM ATP, 100 μM ATP), greater than 10000 nM; against EGFR del19/C797S (IC50 del19/C797S (nM) 100 μM ATP, 100 μM ATP) it was 2.1 nM; at EGFR del19/C797S (setting [3]), 1.1 nM; at EGFR del19/T790M/C797S (IC50 del19/T790M/C797S (nM) 100 μM ATP, 100 μM ATP), 0.5 nM. In addition, the IC50 was 0.8 nM on EGFR del19/T790M/C797S (setting [4]); 2.9 nM against EGFR L858R/C797S (IC50 L858R/C797S (nM) 100 μM ATP, 100 μM ATP); 0.7 nM on EGFR L858R/C797S (setting [5]).
